Reference: ChEMBL document CHEMBL4431352, “Structure-activity relationship of Garcinia xanthones analogues: Potent Hsp90 inhibitors with cytotoxicity and antiangiogenesis activity” (Bioorg Med Chem, 2016)
Values belong to the compound of their own block, whether it stands above or below them.

Molecular target: Heat shock protein HSP 90-alpha (Homo sapiens, UniProt P07900)
Assay: Inhibition of 6x-His tagged human recombinant full length Hsp90alpha ATPase preincubated for 0.5 hrs followed by ATP addition measured after 30 mins by HTRF assay

SMILES: C/C(=C\CC12OC(C)(C)C3CC(C=C4C(=O)c5c(O)cccc5OC431)C2=O)CO (stereo unspecified)
- IC50: 27.3 µM

SMILES: C/C(=C\CC12OCC3CC(C=C4C(=O)c5c(O)cccc5OC431)C2=O)CCl (stereo unspecified)
- IC50: 6.2 µM

SMILES: C/C(=C\CC12OCC3CC(C1=O)C1OC14C(=O)c1c(O)cccc1OC324)CC(=O)O (stereo unspecified)
- IC50: 43 µM

SMILES: CC(=O)Oc1cccc2c1C(=O)C1=CC3CC4C(C)(C)OC(CC=C(C)C)(C3=O)C14O2 (stereo unspecified)
- IC50: 42.4 µM

SMILES: CC(C)=CCC12OCC3CC(C=C4C(=O)c5ccccc5OC431)C2=O (stereo unspecified)
- IC50: 35.2 µM

SMILES: CCOC(=O)COc1cccc2c1C(=O)C1=CC3CC4C(C)(C)OC(CC=C(C)C)(C3=O)C14O2 (stereo unspecified)
- IC50: 89.8 µM

The remaining compounds from weak to strong by IC50, led by results:

- IC50: 67.1 µM
SMILES: CC(C)=CCC12OC(C)(C)C3CC(C=C4C(=O)c5c(cccc5OS(C)(=O)=O)OC431)C2=O (stereo unspecified)

- IC50: 22.6 µM
SMILES: C/C(=C\CC12OC(C)(C)C3CC(C=C4C(=O)c5c(O)cccc5OC431)C2=O)CC=O (stereo unspecified)

- IC50: 15.5 µM
SMILES: CC(C)=CCC12OC(C)(C)C3CC(C=C4C(=O)c5c(O)cccc5OC431)C2=O (stereo unspecified)

- IC50: 15.3 µM
SMILES: C/C(=C\CC12OC(C)(C)C3CC(C=C4C(=O)c5c(O)cccc5OC431)C2=O)CCl (stereo unspecified)

- IC50: 13.6 µM
SMILES: CC(C)=CCC12OCC3CC(C=C4C(=O)c5c(cccc5OS(C)(=O)=O)OC431)C2=O (stereo unspecified)
